The source of these data is patent US10479780B2, “Aminopyrazole derivatives” (Chugai Seiyaku Kabushiki Kaisha, priority 2015, dated 2019).

Holding throughout (type): biochemical
The target in one experiment is T1, human Yes1 enzyme (Homo sapiens, UniProt P07947).
T1 construct: made in house
Briefly: Yes1 enzyme inhibitory activity (time-resolved fluorometry, biotinylated peptide phosphorylation). To be noted: read-out: YES_IC50. The essentials: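 Inhibition was expressed against a compound-free control to give IC50, using TR-FRET read-out (Eu-cryptate anti-pTyr antibody, streptavidin-XL665).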

The next experiment has as its target T2, human Src enzyme (Homo sapiens, UniProt P12931).
T2 construct: purchased Carna Biosciences, Inc. 08-173
Briefly: Src enzyme inhibitory activity (time-resolved fluorometry, biotinylated peptide phosphorylation). To be noted: read-out: SRC_IC50. In a few lines:
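Compounds were tested for blocking tyrosine phosphorylation of a biotinylated peptide substrate by recombinant human Src. Phosphorylated product was quantified by time-resolved fluorometry using europium cryptate and XL665 conjugates, and IC50 was calculated against the compound-free control.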

The target in the next experiment is T3, human Lck enzyme (Homo sapiens, UniProt P06239).
T3 construct: purchased Carna Biosciences, Inc. 08-170
T3 sequence (P06239 whole entry): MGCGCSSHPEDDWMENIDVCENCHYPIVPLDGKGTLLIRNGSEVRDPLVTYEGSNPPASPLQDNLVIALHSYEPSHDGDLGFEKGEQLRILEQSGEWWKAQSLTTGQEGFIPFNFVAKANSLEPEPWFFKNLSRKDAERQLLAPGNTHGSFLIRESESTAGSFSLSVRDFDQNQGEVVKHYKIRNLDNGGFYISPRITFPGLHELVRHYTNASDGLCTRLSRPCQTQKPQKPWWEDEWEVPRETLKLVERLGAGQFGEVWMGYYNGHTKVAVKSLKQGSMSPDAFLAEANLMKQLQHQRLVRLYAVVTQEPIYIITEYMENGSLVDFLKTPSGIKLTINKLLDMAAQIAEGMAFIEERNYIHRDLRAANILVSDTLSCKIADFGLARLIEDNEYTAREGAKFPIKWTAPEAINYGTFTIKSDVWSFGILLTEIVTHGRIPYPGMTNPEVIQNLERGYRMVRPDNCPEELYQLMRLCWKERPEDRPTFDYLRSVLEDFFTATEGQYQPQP
As to the kind of experiment: Lck enzyme inhibitory activity (time-resolved fluorometry, biotinylated peptide phosphorylation). To be noted: read-out: LCK_IC50. In a few lines:
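Readout pairs a europium cryptate-labelled anti-phosphotyrosine antibody with XL665-streptavidin, measured by time-resolved fluorescence. IC50 derived from percent inhibition against untreated controls.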

[1] abbreviates: biotinylated peptide phosphorylation.

Like-named read-outs stand apart in the source and are kept apart here.

T2 sequence (P12931 whole entry): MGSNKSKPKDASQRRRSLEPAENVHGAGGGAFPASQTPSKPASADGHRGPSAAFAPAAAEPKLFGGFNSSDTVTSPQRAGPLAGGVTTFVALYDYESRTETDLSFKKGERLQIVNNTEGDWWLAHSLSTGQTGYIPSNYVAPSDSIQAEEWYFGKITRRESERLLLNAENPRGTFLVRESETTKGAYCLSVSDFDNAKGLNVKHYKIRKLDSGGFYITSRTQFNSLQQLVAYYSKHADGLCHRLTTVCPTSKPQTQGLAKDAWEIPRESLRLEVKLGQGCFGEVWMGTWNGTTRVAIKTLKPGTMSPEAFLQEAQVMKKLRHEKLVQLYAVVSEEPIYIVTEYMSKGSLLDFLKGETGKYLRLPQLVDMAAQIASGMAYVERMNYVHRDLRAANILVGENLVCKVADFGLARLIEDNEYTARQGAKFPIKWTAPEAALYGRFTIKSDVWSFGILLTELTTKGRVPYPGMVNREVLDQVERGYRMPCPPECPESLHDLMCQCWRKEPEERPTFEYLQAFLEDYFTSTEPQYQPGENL
T1 sequence (P07947 whole entry): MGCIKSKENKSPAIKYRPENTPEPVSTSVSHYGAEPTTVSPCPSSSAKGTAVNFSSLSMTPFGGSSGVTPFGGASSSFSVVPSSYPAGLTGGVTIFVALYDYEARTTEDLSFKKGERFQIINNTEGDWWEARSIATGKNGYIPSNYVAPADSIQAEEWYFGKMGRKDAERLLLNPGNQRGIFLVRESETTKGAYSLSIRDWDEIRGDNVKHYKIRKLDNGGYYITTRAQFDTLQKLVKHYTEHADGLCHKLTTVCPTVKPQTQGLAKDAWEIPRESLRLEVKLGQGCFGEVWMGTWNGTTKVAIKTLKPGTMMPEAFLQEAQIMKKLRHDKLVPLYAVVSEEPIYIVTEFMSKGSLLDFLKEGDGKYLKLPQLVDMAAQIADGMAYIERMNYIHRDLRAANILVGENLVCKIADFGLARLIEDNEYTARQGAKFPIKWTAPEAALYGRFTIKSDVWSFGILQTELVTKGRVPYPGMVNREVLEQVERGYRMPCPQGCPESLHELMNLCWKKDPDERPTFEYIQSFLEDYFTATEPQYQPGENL

Regarding `Cc1cc2cc(C(=O)c3cnn(-c4c(C)cc(Oc5ccccc5F)cc4F)c3N)[nH]c2cc1N1CCCS1(=O)=O` [Example 4-2-114, [5-amino-1-[2-fluoro-4-(2-fluorophenoxy)-6-methylphenyl]pyrazol-4-yl]-[6-(1,1-dioxo-1,2-thiazolidin-2-yl)-5-methyl-1H-indol-2-yl]methanone], the values for the IC50 at human Yes1 enzyme (setting [1]), on human Src enzyme (setting [1]) and at human Lck enzyme (setting [1]) were 5 nM, 72 nM and 16 nM, respectively.
On to `Cc1cc(-n2ncc(C(=O)c3cc4cc(OC5CCN(C(C)C)CC5)c(Br)cc4[nH]3)c2N)ccc1Oc1cccc(F)c1` [Example 5-1-210, [5-amino-1-[4-(3-fluorophenoxy)-3-methylphenyl]pyrazol-4-yl]-[6-bromo-5-(1-propan-2-ylpiperidin-4-yl)oxy-1H-indol-2-yl] methanone], for which the IC50 worked out at 6.5 nM on human Yes1 enzyme, 510 nM at human Src enzyme and 120 nM at human Lck enzyme.
Turning to `Cc1cccc(S(=O)(=O)Nc2cc3[nH]c(C(=O)c4cnn(-c5cnc(Oc6ccccc6F)cc5C)c4N)cc3cc2C)c1` [Example 5-1-462, N-[2-[5-amino-1-[6-(2-fluorophenoxy)-4-methylpyridin-3-yl]pyrazole-4-carbonyl]-5-methyl-1H-indol-6-yl]-3-methylbenzenesulfonamide], the IC50 at human Yes1 enzyme (setting [1]) came out at 6.1 nM; on human Src enzyme (setting [1]) it was 1000 nM; at human Lck enzyme (setting [1]), 260 nM.
On to `Cc1cc(Oc2c(F)cccc2F)ncc1-n1ncc(C(=O)c2cc3cc(OCC(F)F)c(N4C(=O)NC(C)(C)C4=O)cc3[nH]2)c1N` [Example 4-23-032, 3-{2-{5-amino-1-[6-(2,6-difluorophenoxy)-4-methylpyridin-3-yl]pyrazole-4-carbonyl}-5-(2,2-difluoroethoxy)-1H-indol-6-yl}-5,5-dimethylimidazolidine-2,4-dione], for which the results for the IC50 at human Yes1 enzyme (setting [1]), on human Src enzyme (setting [1]) and at human Lck enzyme (setting [1]) were 0.58 nM, 17 nM and 2.5 nM, respectively.
With `Cc1cc(Oc2ccccc2F)ccc1-n1ncc(C(=O)c2cc3cc(OCC(F)F)c(Br)cc3[nH]2)c1N` [Example 5-1-070, [5-amino-1-[4-(2-fluorophenoxy)-2-methylphenyl]pyrazol-4-yl]-[6-bromo-5-(2,2-difluoroethoxy)-1H-indol-2-yl]methanone], the IC50 at human Yes1 enzyme worked out at 0.85 nM; on human Src enzyme it was 13 nM; at human Lck enzyme, 12 nM.
As for `Cc1cc(Oc2ccccc2F)ccc1-n1ncc(C(=O)c2cc3cc(OCC(F)F)c(N4C(=O)[C@@H]5C[C@H](NS(=O)(=O)Cc6ccccc6)CN5C4=O)cc3[nH]2)c1N` [Example 5-1-275, N-[(6S,7aS)-2-[2-[5-amino-1-[4-(2-fluorophenoxy)-2-methylphenyl]pyrazole-4-carbonyl]-5-(2,2-difluoroethoxy)-1H-indol-6-yl]-1,3-dioxo-5,6,7,7a-tetrahydropyrrolo[1,2-c]imidazol-6-yl]-1-phenylmethanesulfonamide], the IC50 at human Yes1 enzyme stood at 0.64 nM; at human Src enzyme it was 19 nM; on human Lck enzyme, 7 nM.
Consider `Cc1cc(Oc2ccccc2F)ncc1-n1ncc(C(=O)c2cc3cc(OCC(F)F)c(NS(=O)(=O)c4cc(F)cc(F)c4)cc3[nH]2)c1N` [Example 5-1-420, N-[2-[5-amino-1-[6-(2-fluorophenoxy)-4-methylpyridin-3-yl]pyrazole-4-carbonyl]-5-(2,2-difluoroethoxy)-1H-indol-6-yl]-3,5-difluorobenzenesulfonamide], for which the IC50 at human Yes1 enzyme (setting [1]) came out at 6.3 nM; on human Src enzyme (setting [1]), 600 nM; on human Lck enzyme (setting [1]), 160 nM.
For the molecule `CC(C)N1CCC(c2cc3[nH]c(C(=O)c4cnn(-c5ccc(Oc6cccc(Cl)c6)cc5F)c4N)cc3cc2F)CC1` [Example 5-1-010, [5-amino-1-[4-(3-chlorophenoxy)-2-fluorophenyl]pyrazol-4-yl]-[5-fluoro-6-(1-propan-2-ylpiperidin-4-yl)-1H-indol-2-yl]methanone], the figures for the IC50 at human Yes1 enzyme, on human Src enzyme and at human Lck enzyme were 2.5 nM, 38 nM and 3.6 nM, respectively.
On to `Cc1cc(Oc2c(F)cccc2F)ncc1-n1ncc(C(=O)c2cc3cc(OCC(F)F)c(NS(=O)(=O)c4cccc(C#N)c4)cc3[nH]2)c1N` [Example 5-1-382, N-[2-[5-amino-1-[6-(2,6-difluorophenoxy)-4-methylpyridin-3-yl]pyrazole-4-carbonyl]-5-(2,2-difluoroethoxy)-1H-indol-6-yl]-3-cyanobenzenesulfonamide], for which the results for the IC50 at human Yes1 enzyme, at human Src enzyme and on human Lck enzyme were 2.5 nM, 260 nM and 31 nM, respectively.
Consider `Cc1cc(Oc2ccccc2F)ccc1-n1ncc(C(=O)c2cc3cc(F)c(N4CCC(N5CCOCC5)CC4)cc3[nH]2)c1N` [Example 5-1-128, [5-amino-1-[4-(2-fluorophenoxy)-2-methylphenyl]pyrazol-4-yl]-[5-fluoro-6-(4-morpholin-4-ylpiperidin-1-yl)-1H-indol-2-yl] methanone], for which the IC50 at human Yes1 enzyme was determined as 0.75 nM; on human Src enzyme, 23 nM; at human Lck enzyme, 3.8 nM.
Regarding `Cc1cc2cc(C(=O)c3cnn(-c4cnc(Oc5ccc(F)cc5)cc4C)c3N)[nH]c2cc1NS(C)(=O)=O` [Example 4-2-067, N-[2-[5-amino-1-[6-(4-fluorophenoxy)-4-methylpyridin-3-yl]pyrazole-4-carbonyl]-5-methyl-1H-indol-6-yl]methanesulfonamide], the IC50 at human Yes1 enzyme (setting [1]) was 6.3 nM; at human Src enzyme (setting [1]), 97 nM; on human Lck enzyme (setting [1]), 59 nM.
With `Cc1cncc(S(=O)(=O)Nc2cc3[nH]c(C(=O)c4cnn(-c5cnc(Oc6ccccc6F)cc5C)c4N)cc3cc2C)c1` [Example 5-1-488, N-[2-[5-amino-1-[6-(2-fluorophenoxy)-4-methylpyridin-3-yl]pyrazole-4-carbonyl]-5-methyl-1H-indol-6-yl]-5-methylpyridine-3-sulfonamide], the figures for the IC50 on human Yes1 enzyme (setting [1]), on human Src enzyme (setting [1]) and on human Lck enzyme (setting [1]) were 4.2 nM, 520 nM and 120 nM, respectively.
Take `Cc1cc(Oc2c(F)cccc2F)ncc1-n1ncc(C(=O)c2cc3cc(OC4CCN(C5CS(=O)(=O)C5)CC4)c(-c4cncnc4)cc3[nH]2)c1N` [Example 5-1-284, [5-amino-1-[6-(2,6-difluorophenoxy)-4-methylpyridin-3-yl]pyrazol-4-yl]-[5-[1-(1,1-dioxothietan-3-yl)piperidin-4-yl]oxy-5-pyrimidin-5-yl-1H-indol-2-yl]methanone]: the IC50 on human Yes1 enzyme was 1.1 nM; at human Src enzyme, 11 nM; at human Lck enzyme it was 6.9 nM.
As to `Cc1cc(Oc2ccccc2F)ccc1-n1ncc(C(=O)c2cc3cc(F)c(N4C(=O)CNC4=O)cc3[nH]2)c1N` [Example 5-1-445, 3-[2-[5-amino-1-[4-(2-fluorophenoxy)-2-methylphenyl]pyrazole-4-carbonyl]-5-fluoro-1H-indol-6-yl]imidazolidine-2,4-dione], the IC50 was 0.54 nM at human Yes1 enzyme (setting [1]), 12 nM on human Src enzyme (setting [1]) and 3.1 nM at human Lck enzyme (setting [1]).
For `Cc1cc(Oc2c(F)cccc2F)ncc1-n1ncc(C(=O)c2cc3cc(C(C)C)c(NS(=O)(=O)C4CCCC4)cc3[nH]2)c1N` [Example 5-1-306, N-[2-[5-amino-1-[6-(2,6-difluorophenoxy)-4-methylpyridin-3-yl]pyrazole-4-carbonyl]-5-propan-2-yl-1H-indol-6-yl] cyclopentanesulfonamide], the IC50 at human Yes1 enzyme came to 23 nM; at human Src enzyme, 630 nM; at human Lck enzyme it was 150 nM.
As for `Cc1cc(Oc2c(F)cccc2F)ncc1-n1ncc(C(=O)c2cc3cc(OCC(F)F)c(N4CCOC4=O)cc3[nH]2)c1N` [Example 4-21-005, 3-[2-[5-amino-1-[6-(2,6-difluorophenoxy)-4-methylpyridin-3-yl]pyrazole-4-carbonyl]-5-(2,2-difluoroethoxy)-1H-indol-6-yl]-1,3-oxazolidin-2-one], the IC50 stood at 1.2 nM at human Yes1 enzyme (setting [1]), 11 nM on human Src enzyme (setting [1]) and 4.3 nM at human Lck enzyme (setting [1]).
For `Cc1cccc(S(=O)(=O)Nc2cc3[nH]c(C(=O)c4cnn(-c5ccc(Oc6ccccc6F)cc5C)c4N)cc3cc2C)n1` [Example 5-1-530, N-[2-[5-amino-1-[4-(2-fluorophenoxy)-2-methylphenyl]pyrazole-4-carbonyl]-5-methyl-1H-indol-6-yl]-6-melhylpyridine-2-sulfonamide] the same measures were 2.6 nM, 200 nM and 34 nM.
In the case of `Nc1c(C(=O)c2cc3cc(F)c(NS(=O)(=O)CCCF)cc3[nH]2)cnn1-c1c(Cl)cc(Oc2cccc(F)c2F)cc1Cl` [Example 5-1-028, N-[2-[5-amino-1-[2,6-dichloro-4-(2,3-difluorophenoxy)phenyl]pyrazole-4-carbonyl]-5-fluoro-1H-indol-6-yl]-3-fluoropropane-1-sulfanamide], the IC50 on human Yes1 enzyme stood at 13 nM; on human Src enzyme, 350 nM; on human Lck enzyme it was 200 nM.
As to `Cc1cc(Oc2ccccc2F)cc(F)c1-n1ncc(C(=O)c2cc3cc(OCC(F)F)c(N4CCOC4=O)cc3[nH]2)c1N` [Example 4-25-017, 3-[2-[5-amino-1-[2-fluoro-4-(2-fluorophenoxy)-6-methylphenyl]pyrazole-4-carbonyl]-5-(2,2-difluoroethoxy)-1H-indol-6-yl]-1,3-oxazolidin-2-one], the IC50 worked out at 1.3 nM at human Yes1 enzyme (setting [1]), 6.4 nM at human Src enzyme (setting [1]) and 2.3 nM on human Lck enzyme (setting [1]).
Regarding `Cc1cc(Oc2ccccc2F)ccc1-n1ncc(C(=O)c2cc3cc(C(C)C)c(NS(=O)(=O)C4CCOCC4)cc3[nH]2)c1N` [Example 5-1-282, N-[2-[5-amino-1-[4-(2-fluorophenoxy)-2-methylphenyl]pyrazole-4-carbonyl]-5-propan-2-yl-1H-indol-6-yl]oxane-4-sulfonamide], the IC50 came to 4.8 nM on human Yes1 enzyme, 200 nM at human Src enzyme and 120 nM at human Lck enzyme.
